US8354433B2, “Anti-inflammatory agents as virostatic compounds” (4SC AG, priority 2009, dated 2013)
Where two headings read alike, the source gives them in different places.

How the values were obtained:
[1] = molecular target: dihydroorotate dehydrogenase (DHODH) (Homo sapiens, UniProt Q02127); test: DHODH inhibition, in vitro assay; format: biochemical
HIV-191US005 = test: Anti-HIV efficacy in fresh human PBMCs (RT activity and p24 ELISA); format: cell-based, HIV-1; details: Human immunodeficiency virus 1, PBMC, 168 h; for EC50: read-out: EC50/nM; for EC90: read-out: EC90/nM
[2] = test system: HCV subgenomic replicon of genotype 1b; test: microbe, parasite or virus in culture; format: cell-based; details: Hepatitis C virus, 24 h, read-out: Antiviral Activity EC50/nM
HBV = test: Anti-HBV evaluation with HepG2 2.2.15 cells (extracellular HBV DNA, qPCR); format: cell-based; details: Hepatitis B virus, read-out: Antiviral Activity EC50
Procedure: Compounds were solubilized in DMSO in a concentration of 40 mM. (−)-2′-Desoxy-3′-thiacytidin (3TC) was used as the positive antiviral controls. The high-test concentrations were 10 μM for 4SC compounds and 1 μM for 3TC.
Briefly, HepG2-2.2.15 cells were plated in 96-well microtiter plates. Only the interior wells were utilized to reduce “edge effects” observed during cell culture; the exterior wells were filled with complete medium to help minimize sample evaporation. After 16-24 hours the confluent monolayer of HepG2-2.2.15 cells was washed and the medium was replaced with complete medium containing various concentrations of a test compound in triplicate. 3TC was used as the positive control, while media alone was added to cells as a negative control. Three days later the culture medium was replaced with fresh medium containing the appropriately diluted drug. Six days following the initial administration of the test compound, the cell culture supernatant was collected, treated with pronase and then used in a quantitative qPCR TaqMan assay. Antiviral activity was calculated from the reduction in HBV DNA levels (IC50). Cell Titer 96 ®AQueous One Solution Cell Proliferation kit (Promega, Madison, Wis.) was used to measure cell viability which is used to calculate toxicity (TC50). The therapeutic index (TI) was calculated as TC50/IC50

[3] = Cell viability in HepG2-2.2.15 cells (Cell Titer 96); format: cell-based; details: human, six days, read-out: TC50
Procedure: Anti-HBV assay was performed as described in Korba, B F and Milman, G., 1991 (A cell culture assay for compound which inhibits hepatitis B virus replication. Antiviral Res. 15: 217-228) and in Korba, B F and Gerin, J L., 1992 (Use of a standardized cell culture assay to assess activities of nucleoside analogs again hepatitis B virus replication. Antiviral Res. 19: 55-70) with modifications to measure extracellular HBV DNA copy with real-time PCR (qPCR/TaqMan). Briefly, HepG2-2.2.15 cells were plated in 96-well microtiter plates. Only the interior wells were utilized to reduce “edge effects” observed during cell culture; the exterior wells were filled with complete medium to help minimize sample evaporation. After 16-24 hours the confluent monolayer of HepG2-2.2.15 cells was washed and the medium was replaced with complete medium containing various concentrations of a test compound in triplicate. 3TC was used as the positive control, while media alone was added to cells as a negative control. Three days later the culture medium was replaced with fresh medium containing the appropriately diluted drug. Six days following the initial administration of the test compound, the cell culture supernatant was collected, treated with pronase and then used in a quantitative qPCR TaqMan assay. Antiviral activity was calculated from the reduction in HBV DNA levels (IC50). Cell Titer 96 ®AQueous One Solution Cell Proliferation kit (Promega, Madison, Wis.) was used to measure cell viability which is used to calculate toxicity (TC50). The therapeutic index (TI) was calculated as TC50/IC50

RSV Strain Long = test: microbe, parasite or virus in culture; format: cell-based; details: human respiratory syncytial virus, Vero, read-out: Antiviral Activity EC50
DENV Type 2 (New Guinea) = test: microbe, parasite or virus in culture; format: cell-based; details: Dengue virus, Vero C1008, read-out: Antiviral Activity EC50
YFV Strain 17D = test: microbe, parasite or virus in culture; format: cell-based; details: Yellow fever virus, Vero, read-out: Antiviral Activity EC50
WNV Strain NY-99 = test: microbe, parasite or virus in culture; format: cell-based; details: West Nile virus, Vero, read-out: Antiviral Activity EC50
Influenza Virus (H7N7) = test: microbe, parasite or virus in culture; format: cell-based, avian influenza virus (Fowl Plaque Virus; details: unidentified influenza virus, H7N7, A549, 16 h
HCMV AD 169-GFP = test: microbe, parasite or virus in culture; format: cell-based, Human Cytomegalovirus; details: Human betaherpesvirus 5, Fibroblast, 168 h, read-out: Antiviral Activity EC50
in vitro [4] = details: human
human PBMCs = test: MTS cytotoxicity in human PBMCs; details: seven days
[5] = test system: ET cell line (luc-ubi-neo/ET), Huh7; test: CytoTox-1 cytotoxicity in ET cells; details: 24 h, cell unit μM
Ebola Virus = test: microbe, parasite or virus in culture; format: cell-based; details: Zaire ebolavirus, Vero, read-out: Antiviral Activity % Inhibition
in vitro [6] = details: African green monkey
in vitro [7] = details: African green monkey; remark: listed apart in the source
in vitro [8] = details: African green monkey; remark: listed apart in the source
Vero cells [9] = details: African green monkey
Vero cells [10] = details: African green monkey; remark: listed apart in the source
Vero cells [11] = details: African green monkey; remark: listed apart in the source
[12] = Table 3, read-out: DHODH IC50/nM
[13] = Table 4, read-out: DHODH IC50/nM
[14] = Table 5, read-out: DHODH IC50/nM
[15] = Table 6, read-out: DHODH IC50/nM
[16] = Table 7, read-out: DHODH IC50/nM
[17] = Table 8, read-out: DHODH IC50/nM
[18] = 144 h, HepG2 2.2.15 cells, HBV DNA, six days

dihydroorotate dehydrogenase (DHODH), sequence (Q02127 whole entry): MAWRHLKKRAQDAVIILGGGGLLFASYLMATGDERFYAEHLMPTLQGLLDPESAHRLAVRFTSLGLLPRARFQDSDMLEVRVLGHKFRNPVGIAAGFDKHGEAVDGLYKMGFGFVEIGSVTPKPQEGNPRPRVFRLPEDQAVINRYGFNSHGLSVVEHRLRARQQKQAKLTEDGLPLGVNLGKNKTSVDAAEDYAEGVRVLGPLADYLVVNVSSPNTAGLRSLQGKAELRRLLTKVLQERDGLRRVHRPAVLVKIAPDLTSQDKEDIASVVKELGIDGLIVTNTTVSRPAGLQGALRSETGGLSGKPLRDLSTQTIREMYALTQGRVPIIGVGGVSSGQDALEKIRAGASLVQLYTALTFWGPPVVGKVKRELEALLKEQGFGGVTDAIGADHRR

Row | SMILES | IC50 [1, 12] [nM] | IC50 [1, 13] [nM] | IC50 [1, 14] [nM] | IC50 [1, 15] [nM] | IC50 [1, 16] [nM] | IC50 [1, 17] [nM] | EC50 (HIV-191US005; Endpoint RT, seven days) [nM] | EC90 (HIV-191US005; Endpoint RT, seven days) [nM] | EC50 (HIV-191US005; Endpoint p24, seven days) [nM] | EC90 (HIV-191US005; Endpoint p24, seven days) [nM] | EC50 [2] [nM] | EC50 (HBV; [18]) [nM] | CC50 at 6 days [3] [nM] | EC50 (RSV Strain Long) | EC50 (DENV Type 2 (New Guinea)) | EC50 (YFV Strain 17D) | EC50 (WNV Strain NY-99) | EC50 (Influenza Virus (H7N7)) [nM] | TC50/nM (human PBMCs) [nM] | other results
1 | O=C(Nc1c(F)c(F)c(-c2cccc(OC(F)(F)F)c2)c(F)c1F)c1ccsc1C(=O)O [Compound 1, 3-(2,3,5,6-Tetrafluoro-3′-trifluoromethoxy-biphenyl-4-ylcarbamoyl)-thiophene-2-carboxylic acid] | < 20 | < 20 | < 20 | < 20 | < 20 | < 20 | 120 | 300 | 170 | 300 | 23 | 4800 | > 10000 | 2100 nM | 72 nM | 232 nM | 735 nM | ~1500 | >100000 | IC50 [1]: < 20 nM; IC50 ([1]; Table 10, read-out: DHODH IC50/nM): < 20 nM; IC50 ([1]; read-out: DHODH IC50/nM, Table 2): < 20 nM; EC50 (HCMV AD 169-GFP): 780 nM; CC50 at 7 days (in vitro [4]): > 10000 nM; TC50 [5]: >100 µM
2 | O=C(O)C1=C(C(=O)Nc2c(F)c(F)c(-c3cccc(OC(F)(F)F)c3)c(F)c2F)CCC1 [Compound 4, 2-(2,3,5,6-Tetrafluoro-3′-trifluoromethoxy-biphenyl-4-ylcarbamoyl)-cyclopent-1-enecarboxylic acid] |  |  | < 20 | < 20 |  | < 20 | 60 | 210 | 80 | 240 | 80 |  | > 10000 | 2150 nM | 67 nM | 681 nM | > 10000 nM | ~3000 | 42400 | IC50 ([1]; DHODH IC50/nM, Table 1): < 20 nM; IC50 ([1]; DHODH IC50/nM, Table 2): < 20 nM; IC50 ([1]; DHODH IC50/nM, Table 3): < 20 nM; IC50 ([1]; DHODH IC50/nM, Table 4): < 20 nM; IC50 ([1]; DHODH IC50/nM, Table 7): < 20 nM; IC50 ([1]; Table 9, read-out: DHODH IC50/nM): < 20 nM; EC50 (HBV; HepG2 2.2.15, 144 h): > 10000 nM; inhibition at 30 µM (Influenza Virus (H7N7); read-out: Antiviral Activity % Inhibition): > 90%; inhibition at 31.6 µM (Ebola Virus): > 90%; inhibition at 100 µM (Ebola Virus): > 98%
3 | O=C(Nc1c(F)cc(-c2cccc(OC(F)(F)F)c2)cc1F)c1ccsc1C(=O)O [Compound 17, 3-(3,5-difluoro-3′-(trifluoromethoxy)biphenyl-4-ylcarbamoyl)thiophene-2-carboxylic acid] | < 20 | < 20 |  | < 20 | < 20 | < 20 |  |  |  |  |  | 6400 | > 10000 | > 10000 nM | > 10000 nM | 2250 nM | 6390 nM | ~3000 |  | IC50 ([1]; DHODH IC50/nM, Table 5): < 20 nM; CC50 (in vitro [6]): > 10000 nM; CC50 (in vitro [7]): > 10000 nM; CC50 (in vitro [8]): > 10000 nM
4 | NC(=O)c1ncn([C@@H]2O[C@H](CO)[C@@H](O)[C@H]2O)n1 [Ribavirin, reference compound] |  |  |  |  |  |  |  |  |  |  |  |  |  | 7.95 µg/mL | 26.5 µg/mL | 7.33 µg/mL | 22 µg/mL |  |  | TC50 (Vero cells [9]): >100 µg/mL; TC50 (Vero cells [10]): >100 µg/mL; TC50 (Vero cells [11]): >100 µg/mL
